# Measurements: patent US20200155650A1, “Combination treatment of NAFLD and NASH” (CymaBay Therapeutics, Inc., priority 2018, published 2020)
# pEC50: −log10 of the molar value.
# Tests used:
# [1] = target: T1, PPARα (Homo sapiens, UniProt Q07869); conditions: cited from earlier work
# T1 sequence (Q07869 1-468): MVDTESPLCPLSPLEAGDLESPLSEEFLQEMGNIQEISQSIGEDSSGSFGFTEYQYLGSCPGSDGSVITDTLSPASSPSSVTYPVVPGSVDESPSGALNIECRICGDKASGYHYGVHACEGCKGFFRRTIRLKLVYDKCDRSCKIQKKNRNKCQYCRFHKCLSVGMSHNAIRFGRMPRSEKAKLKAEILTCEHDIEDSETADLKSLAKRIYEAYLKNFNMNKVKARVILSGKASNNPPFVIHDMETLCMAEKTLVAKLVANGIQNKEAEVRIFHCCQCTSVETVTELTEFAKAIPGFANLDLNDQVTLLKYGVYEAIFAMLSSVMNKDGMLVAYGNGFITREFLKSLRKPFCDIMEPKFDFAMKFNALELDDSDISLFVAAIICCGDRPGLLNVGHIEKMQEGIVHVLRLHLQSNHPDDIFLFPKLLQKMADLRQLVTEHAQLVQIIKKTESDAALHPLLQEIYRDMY
# [2] = test system: subjects with liver biopsy-proven NASH; assay: Example 3, clinical, single agent seladelpar in biopsy-proven NASH; type: in vivo, human; conditions: 10, 20, and 50 mg/day for 52 weeks
# Description: One hundred seventy-five subjects with liver biopsy-proven NASH are treated with doses of 10, 20, and 50 mg/day, or placebo (2:2:2:1 randomization) for 52 weeks. Subjects are permitted their usual other medications (e.g. antidiabetic medications such as metformin or […]) but not glitazones, PPAR agonists, OCA, or similar medications. […] The primary efficacy outcome is the change in baseline in liver fat content at 12 weeks, as measured by magnetic resonance imaging-derived proton density fat fraction (MRI-PDFF). Other outcome measures include histological improvement in NASH and fibrosis, assessed by comparing liver biopsy samples at baseline and at 52 weeks after the start of dosing; MRI-PDFF at 26 and 52 weeks; and measurements of total cholesterol, HDL-C, LDL-C, VLDL-C, TGs, apoB, and liver transaminases. The subjects also maintain health diaries, which are reviewed at each visit.
# [3] = test system: Alms1 mutant (fozlfoz) mice; conditions: 10 mg/Kg by gavage for 8 weeks, cited from earlier work
compound,measurement,setting,value
CSc1ccc(C(=O)/C=C/c2cc(C)c(OC(C)(C)C(=O)O)c(C)c2)cc1 [elafibranor],pEC50,[1],8.22
"CCO[C@H](COc1ccc(C(F)(F)F)cc1)CSc1ccc(OCC(=O)O)c(C)c1 [Seladelpar, (R)-2-(4-((2-ethoxy-3-(4-(trifluoromethyl)phenoxy)propyl)-sulfanyl)-2-methylphenoxy)acetic acid]","improvement in disease (MRI-PDFF, liver biopsy, NAS score)",[2],dose-related improvement in their disease
same,mean nonalcoholic fatty liver disease activity score (NAS),[3]; vehicle 6.9,3.13
same,reduction of serum alanine aminotransferase,[3]; vehicle 300-600 U/L,50%
same,"hyperglycemia, hyperinsulinemia, and glucose disposal",[3],normalized
